Measurements taken from patent publication US11628146B2, “Estrogen receptor ligand treatment for neurodegenerative diseases” (The Regents of the University of California, priority 2014, dated 2023).
Entries after “also recorded” stand apart in the source; their conditions may differ.

What was measured:
[1] = Dissolution of the compound in the oil vehicle; assay type: physicochemical; details: DPN; needed ethanol first
Experimental: (§1) Reagents. AC-186 was dissolved in either Miglyol 812N liquid oil (Sasol North America) or sesame oil (Sigma Aldrich) as following concentration; 1.5 mg/mL for 3 mg/kg group, 5 mg/mL for 10 mg/kg group, and 15 mg/mL for 30 mg/kg group. Diarylpropionitrile (DPN, Tocris Biosciences) was dissolved in 10% molecular-grade ethanol and diluted with 90% of either Miglyol 812N liquid oil or sesame oil.
Three doses of the AC-186 compound were tested in C57BL6 female mice: low (3 mg/kg, every other day), medium (10 mg/kg, every other day), and high (30 mg/kg, every other day), each injected subcutaneously in a sesame oil vehicle. The ERβ ligand diarylpropionitrile (DPN) was tested as a positive control because DPN can partially ameliorate EAE and because the treatment effects in EAE experiments can vary based on the level of disease severity within an experiment. Direct comparisons between treatments were only made between treatment groups within a single EAE experiment and not between treatment groups of different EAE experiments. […] The difference in improvement between the 30 mg/kg AC-186 group and all other groups increased with time.

[2] = system: EAE in NOD mice; test: Standard EAE clinical score (0-5 scale), MOG-induced EAE, NOD mice; assay type: in vivo, mouse; details: NOD females; DPN in miglyol vehicle; vs vehicle
From the text: (§2) Animals. C57BL/6 and NOD mice 8 weeks old were purchased from Jackson Laboratories (Bar Harbor, Me.). Animals were maintained under environmentally controlled conditions in a 12-hour light/dark cycle with access to food and water ad libitum. All procedures were done in accordance with the guidelines of the National Institutes of Health and the Chancellor's Animal Research Committee of the University of California, Los Angeles Office for the Protection of Research Subjects.
as §1
(§3) EAE and Treatments. Animals were injected subcutaneously with Myelin Oligodendrocyte Glycoprotein (MOG), amino acids 35-55 (200 μg/animal, American Peptides), emulsified in complete Freund's adjuvant (CFA) and supplemented with Mycobacterium tuberculosis H37ra (300 μg/animal, Difco Laboratories), over two sites drained by left inguinal and auxiliary lymph nodes in a total volume of 0.1 ml/mouse. One week later, a booster immunization was delivered over contra lateral lymph nodes. Pertussis toxin (500 ng/mouse) (List Biological Laboratories, Inc.) was injected intraperitoneally on days 0 and 2. Animals were monitored daily for EAE signs based on a standard EAE 0-5 scale scoring system: 0—healthy, 1—complete loss of tail tonicity, 2—loss of righting reflex, 3—partial paralysis, 4—complete paralysis of one or both hind limbs, and 5—moribund. Animals received 0.05 ml of either of 1.5, 5, 15 mg/mL AC-186, vehicle (sesame oil or Miglyol 812N liquid oil), or DPN (8 mg/kg/day) via subcutaneous injections every other day. Animals were treated with AC-186 or vehicle after EAE induction. Specifically, treatment was initiated at the first clear signs of clinical disease (EAE day 13-15), and continued to the endpoint of the experiment.

[3] = system: EAE in C57BL/6 mice; test: Standard EAE clinical score (0-5 scale), MOG 35-55 induced EAE, C57BL/6 mice; assay type: in vivo, mouse
From the text: as §2, §1, §3

[4] = system: spinal cords of C57BL/6 females with EAE; details: DPN; previous experiments; cited from earlier work
[5] = system: EAE in C57BL/6 mice; test: Rotarod testing of motor coordination and balance in EAE, C57BL/6 mice; assay type: in vivo, mouse; details: DPN in 10% ethanol/miglyol vs miglyol vehicle (FIG. 4; strain not given)
Experimental: Rotarod Testing. Motor behavior was tested up to two times per week for each mouse using a rotarod apparatus (Med Associates Inc., St. Albans, Vt.). Briefly, animals were placed on a rotating horizontal cylinder for a maximum of 200 seconds. The amount of time the mouse remained walking on the cylinder, without falling, was recorded. Each mouse was tested on a speed of 3-30 rpm and given three trials for any given day. The three trials were averaged to report a single value for an individual mouse, and then averages were calculated for all animals within a given treatment group. The first two trial days prior to immunization (day 0), served as practice trials.

[6] = system: EAE in C57BL/6 mice; details: DPN in Miglyol carrier; previous work; cited from earlier work
[7] = system: healthy female C57BL/6 mice (no EAE induced); test: Morris water maze (spatial memory) in ovariectomized mice; assay type: in vivo, mouse; details: for Morris water maze learning (time in target quadrant): ovariectomized, estriol-treated mice (OVX-Estriol) vs OVX-Placebo
Experimental: FIG. 25. Peripheral estrogens improve performance on the Morris water maze via ERβ expressed on neurons. Healthy female C57BL/6 (with no EAE induced) were tested for cognitive performance (spatial memory) using the Morris water maze, whereby mice learn to spend more time in a target quadrant (TQ) as compared to three other quadrants (OQ). […] (Bottom graph) To determine (a) whether ER beta is required for proper learning and, more specifically, (b) whether ER beta expression in neurons is required for learning, mice were generated that had ER beta conditionally knocked out using CreLox technology, with Cre driving the knock out in neurons via the neuron-specific enolase (NSE) promoter. […] (***p≤0.001, ANOVA-Sidak's posttest). […] The dashed line on the graphs indicates the time expected to be spent in a quadrant by random chance in the absence of learning (25%).

| SMILES | Dissolution in sesame oil [1] | EAE score [2] | EAE score ([3]; DPN in 10% ethanol/miglyol vs miglyol vehicle (FIG. 4; strain not given)) | EAE score ([3]; female C57BL/6, DPN in 10% ethanol in sesame oil) | CD45 staining in the CNS [4] | Iba-1 globoid cell staining [4] | Rotarod times [5] | EAE amelioration [6] | Morris water maze learning (% duration in target quadrant) ([7]; OVX-Estriol NSE-Cre:ERβ fl/fl mice (neuronal ER beta knockout), listed as Estriol) | Morris water maze learning (time in target quadrant) [7] | Morris water maze learning (time in target quadrant) ([7]; listed as Estriol) |
| --- | --- | --- | --- | --- | --- | --- | --- | --- | --- | --- | --- |
| N#CC(Cc1ccc(O)cc1)c1ccc(O)cc1 (centres unmarked) [DPN, Diarylpropionitrile, reference compound] | difficult to dissolve in sesame oil | significantly ameliorated EAE; also recorded: better EAE scores | protects against EAE better; also recorded: better EAE scores | not effective | no significant effect on CD45 staining; also recorded: no effect on CD45 or Iba-1 globoid cell staining | no effect on CD45 or Iba-1 globoid cell staining | better performance with the rotarod test | ameliorated EAE |  |  |  |
| C[C@]12CC[C@@H]3c4ccc(O)cc4CC[C@H]3[C@@H]1C[C@@H](O)[C@@H]2O [estriol] |  |  |  |  |  |  |  |  | estrogen-mediated improvement is lost | ability to learn may be restored | improves performance |
